The assay deals with San Carlos virus. The assay can be described thus: Dimethylphenols against San Carlos virus in tissue culture (human embryonic lung), CPE. Type of assay: cell-based, San Carlos virus (adenovirus). To be noted: for CPE with TCID50 doses of San Carlos virus: human embryonic lung, 100 TCID50; for anti-viral activity against San Carlos virus: at various concentrations.

The results in this text go back to patent US4084006A, “Method of using dialkylphenols an antiviral agents” (priority 1977, dated 1978).

For the compound `Cc1cccc(O)c1C` [2,3-dimethylphenol], the “anti-viral activity against San Carlos virus” value (from here on “anti-viral activity”) is “exhibit anti-viral activity”. Moreover, the “CPE with TCID50 doses of San Carlos virus” value (shortened to “CPE with TCID50 doses”) (10^-6 grams 2X) is listed as 3+ (75% of cells infected with selected virus). Further, where the note is “10^-7 grams 2X”, the “CPE with TCID50 doses” value is listed as 2+ (50% of cells infected with selected virus). The “CPE with TCID50 doses” value (10^-8 grams 2X) is given as 2+ (50% of cells infected with selected virus). For the same compound, under “10^-9 grams 2X”, the “CPE with TCID50 doses” value was 1+ (25% of cells infected with selected virus). For the same compound, for the setting “10^-10 grams 2X”, the “CPE with TCID50 doses” value is 1+ (25% of cells infected with selected virus). Further, under “10^-11 grams 2X”, the “CPE with TCID50 doses” value was 1+ (25% of cells infected with selected virus). Further, the “CPE with TCID50 doses” value (10^-12 grams 2X) was 2+ (50% of cells infected with selected virus). Also, where the note is “10^-13 grams 2X”, the “CPE with TCID50 doses” value is listed as 1+ (25% of cells infected with selected virus). In addition, the “CPE with TCID50 doses” value (10^-14 grams 2X) was 2+ (50% of cells infected with selected virus). For the same compound, the “CPE with TCID50 doses” value (10^-15 grams 2X) is on record as 2+ (50% of cells infected with selected virus).
Take `Cc1ccc(O)cc1C` [3,4-dimethylphenol, reference compound]: the “CPE with TCID50 doses” value is, setting by setting: (10^-6 grams 2X) 2+ (50% of cells infected with selected virus); (10^-7 grams 2X) 1+ (25% of cells infected with selected virus); (10^-8 grams 2X) 1+ (25% of cells infected with selected virus); (10^-9 grams 2X) 1+ (25% of cells infected with selected virus); (10^-10 grams 2X) 2+ (50% of cells infected with selected virus); (10^-11 grams 2X) 2+ (50% of cells infected with selected virus). Further, the “CPE with TCID50 doses” value is, setting by setting: (10^-12 grams 2X) 1+ (25% of cells infected with selected virus); (10^-13 grams 2X) 2+ (50% of cells infected with selected virus); (10^-14 grams 2X) 2+ (50% of cells infected with selected virus); (10^-15 grams 2X) 1+ (25% of cells infected with selected virus).
For `Cc1ccc(C)c(O)c1` [2,5-dimethylphenol], the “anti-viral activity” value is recorded as “exhibit anti-viral activity”. Also, the “CPE with TCID50 doses” value (10^-6 grams 2X) is 3+ (75% of cells infected with selected virus). Under “10^-7 grams 2X”, the “CPE with TCID50 doses” value is reported as 2+ (50% of cells infected with selected virus). For the setting “10^-8 grams 2X”, the “CPE with TCID50 doses” value is reported as 1+ (25% of cells infected with selected virus). Further, the “CPE with TCID50 doses” value (10^-9 grams 2X) is listed as “± (less than 10% infected)”. Besides, the “CPE with TCID50 doses” value (10^-10 grams 2X) was 1+ (25% of cells infected with selected virus). Also, the “CPE with TCID50 doses” value (10^-11 grams 2X) is 1+ (25% of cells infected with selected virus). Under “10^-12 grams 2X”, the “CPE with TCID50 doses” value is on record as “± (less than 10% infected)”. The “CPE with TCID50 doses” value (10^-13 grams 2X) is “± (less than 10% infected)”. The “CPE with TCID50 doses” value (10^-14 grams 2X) is “± (less than 10% infected)”. For the same compound, the “CPE with TCID50 doses” value (10^-15 grams 2X) is 2+ (50% of cells infected with selected virus).
On to `Cc1cccc(C)c1O` [2,6-dimethylphenol], for which the “anti-viral activity” value is on record as “exhibit anti-viral activity”. Also, the “CPE with TCID50 doses” value (10^-6 grams 2X) is recorded as 2+ (50% of cells infected with selected virus). The “CPE with TCID50 doses” value (10^-7 grams 2X) is 2+ (50% of cells infected with selected virus). Further, under “10^-8 grams 2X”, the “CPE with TCID50 doses” value is given as 1+ (25% of cells infected with selected virus). The “CPE with TCID50 doses” value (10^-9 grams 2X) is reported as 2+ (50% of cells infected with selected virus). Where the note is “10^-10 grams 2X”, the “CPE with TCID50 doses” value is recorded as 1+ (25% of cells infected with selected virus). Further, the “CPE with TCID50 doses” value (10^-11 grams 2X) is recorded as 3+ (75% of cells infected with selected virus). In addition, the “CPE with TCID50 doses” value (10^-12 grams 2X) is reported as 2+ (50% of cells infected with selected virus). Also, for the setting “10^-13 grams 2X”, the “CPE with TCID50 doses” value was 2+ (50% of cells infected with selected virus). Moreover, under “10^-14 grams 2X”, the “CPE with TCID50 doses” value is 1+ (25% of cells infected with selected virus). In addition, the “CPE with TCID50 doses” value (10^-15 grams 2X) was 1+ (25% of cells infected with selected virus).
